Measurements published in US10420772B2, “Animal and human anti-trypanosomonal and anti-leishmania agents” (Celgene Corporation, priority 2016, dated 2019).

Assays:
Type in all cases: cell-based
[1] = tested on: IL3000 T. congolense (drug sensitive) strain; assay: In vitro Alamar Blue 72 hrs drug sensitivity assay for T. congolense; settings: Trypanosoma congolense, IL3000 T. congolense bloodstream form, read-out: T. congo Act.
Outline: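 Bloodstream-form IL3000 trypanosomes in HMI medium with 20% bovine serum were exposed to compound for 69 hrs at 34° C, 5% CO2. Resazurin was then added for 3 hrs and fluorescence read (ex 536/em 588 nm). IC50 came from 11-point sigmoidal curves over at least three independent runs.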

[2] = tested on: STIB 719/ILRAD 560 T. vivax (drug sensitive) strain; assay: Ex vivo Alamar Blue 48 hrs drug sensitivity assay for T. vivax; settings: Trypanosoma vivax, STIB719; STIB 719/ILRAD 560 T. vivax bloodstream form, ex vivo, Alamar Blue, 48 hrs; read-out: T. vivax Act.
Outline: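 Bloodstream-form trypanosomes taken from a parasitaemic mouse were exposed to compound for 45 h at 37°C, 5% CO2 in HMI medium with 20% bovine serum. Resazurin added for a further 3 h, fluorescence read at ex 536/em 588 nm. IC50 from 11-point sigmoidal curves, at least three independent runs.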

[3] = tested on: STIB 806 K T. evansi (drug sensitive) strain; assay: In vitro Alamar Blue 72 hrs drug sensitivity assay for T. evansi; settings: STIB 806 K T. evansi bloodstream form, Alamar Blue, 72 hrs; read-out: T. evansi Act.
Description: In vitro Alamar Blue 72 hrs drug sensitivity assay for T. evansi. Compounds were tested in vitro for chemotherapeutic efficacy against the STIB 806 K T. evansi (drug sensitive) strain, using an Alamar Blue assay. Test compounds were prepared as 10 mg/mL DMSO stocks for each assay run. Compounds were assayed in at least three separate, independent test runs and an 11-point dilution curve was used to determine the IC50 values. Bloodstream form trypanosomes were incubated with test compounds for 69 hrs at 37° C. in a humidified atmosphere containing 5% CO2, supported in HMI media containing 15% horse serum. Thereafter, 10 μL of Resazurin dye (12.5 mg in 100 mL of phosphate buffered saline, Sigma-Aldrich, Buchs, Switzerland) were added for an additional 3 hrs. Plates were then read using a fluorescent plate reader (Spectramax, Gemini XS, Bucher Biotec, Basel, Switzerland) using an excitation wavelength of 536 nm and an emission wavelength of 588 nm. Data points were averaged to generate sigmoidal dose-response curves and IC50 values were determined using Softmax Pro 5.2 software.

Measured: IC50

CC1(Nc2ncc3nc(Nc4cccc(C(F)(F)F)c4F)n([C@H]4CC[C@@H](CN)CC4)c3n2)CCOCC1 [A-46, 9-((1s,4s)-4-(aminomethyl)cyclohexyl)-N8-(2-fluoro-3-(trifluoromethyl)phenyl)-N2-(4-methyltetrahydro-2H-pyran-4-yl)-9H-purine-2,8-diamine]
< 150 nM: all assays above

CC1(Nc2ncc3nc(Nc4cc(F)cc(Cl)c4)n([C@H]4CC[C@@H](CN)CC4)c3n2)CCOCC1 [A-47, 9-((1s,4s)-4-(aminomethyl)cyclohexyl)-N8-(3-chloro-5-fluorophenyl)-N2-(4-methyltetrahydro-2H-pyran-4-yl)-9H-purine-2,8-diamine]
< 150 nM: all assays above

CC1(Nc2ncc3nc(Nc4cccc(Cl)c4F)n([C@H]4CC[C@@H](CN)CC4)c3n2)CCOCC1 [A-49, 9-((1s,4s)-4-(aminomethyl)cyclohexyl)-N8-(3-chloro-2-fluorophenyl)-N2-(4-methyltetrahydro-2H-pyran-4-yl)-9H-purine-2,8-diamine]
< 150 nM: all assays above
